Legend:
[1] = test system: platelets in peripheral blood; test: In vivo platelet production in mice, once a day for five days (Examples 13 and 16); set-up: species or system Balb/c mice; settings: sixth day
Procedure: (§1) In Examples 7-10 and 13-17, the PEGylated hIL-6 polypeptides of the present invention were dissolved in PBS containing 0.1% normal mouse serum. The concentration of the solutions was adjusted so that the final volume administered was 100 μl.
The hIL-6 produced in Example 4 or its PEGylated derivatives produced in Examples 11 and 12 were administered subcutaneously to four Balb/c mice (8 weeks old, female) once a day for five days. Control mice were administered with the vehicle. Blood samples were taken on the sixth day and platelets in peripheral blood were counted.
The PEGylated hIL-6 Fr120'-2 was administered to five mice once a day for five days at a dose of 1 μg/mouse and blood samples were taken on the sixth day as described in Example 13.

[2] = Acute toxicity (Example 17); type: in vivo, Balb/c mice; settings: for deaths during the ten day period after the administration: 1, 5, or 10 mg/kg s.c.; for acute LD50: s.c., ten day observation, 14400 min
Procedure: as §1
The acute toxicity of PEGylated hIL-6 was investigated. The hIL-6 of Example 4 or its PEGylated derivatives (Fr45-2, Fr100-2, and Fr120-2), produced in Examples 4, 11, and 12, were administered subcutaneously to five Balb/c mice (6 weeks old, male, 21-23 g weight) at a dose of either 1, 5, or 10 mg/kg weight (as polypeptide).

[3] = Castell et al. 1988; cited from earlier work
[4] = Table 6, 1 μg/mouse/injection s.c. once a day for five days
[5] = Table 6, 10 μg/mouse/injection s.c. once a day for five days
[6] = Table 6, 0.5 μg/mouse/injection s.c. once a day for five days
[7] = Table 6, 5 μg/mouse/injection s.c. once a day for five days
[8] = Table 7, 0.1 μg/mouse/injection s.c. once a day for five days
[9] = Table 7, 0.5 μg/mouse/injection s.c. once a day for five days
[10] = Table 7, 1 μg/mouse/injection s.c. once a day for five days
[11] = Table 7, 5 μg/mouse/injection s.c. once a day for five days
[12] = Table 7, 10 μg/mouse/injection s.c. once a day for five days

Substance | Number of platelets (% of control) [1, 4] | Number of platelets (% of control) [1, 5] | Number of platelets (% of control) [1, 6] | Number of platelets (% of control) [1, 7] | deaths during the ten day period after the administration [2] | acute LD50 [2] | Number of platelets (% of control) [1, 8] | Number of platelets (% of control) [1, 9] | Number of platelets (% of control) [1, 10] | Number of platelets (% of control) [1, 11] | Number of platelets (% of control) [1, 12] | in vivo half-life in blood [3]
Fr100-1: fraction of PEG(10000)IL-6, average 5.3 free amino groups per molecule | 100.0 % of control | 211.1 % of control |  |  |  |  |  |  |  |  |  | 
Fr100-2: fraction of PEG(10000)IL-6, average 7.4 free amino groups per molecule | 148.9 % of control | 250.8 % of control | 107.9 % of control | 205.9 % of control | None of the mice was observed to die | over 10 mg/kg weight |  |  |  |  |  | 
Fr100-3: fraction of PEG(10000)IL-6, average 8.6 free amino groups per molecule | 141.1 % of control | 204.4 % of control | 113.7 % of control | 212.7 % of control |  |  |  |  |  |  |  | 
Fr100-4: fraction of PEG(10000)IL-6, average 9.4 free amino groups per molecule | 142.5 % of control | 203.2 % of control | 138.7 % of control | 226.5 % of control |  |  |  |  |  |  |  | 
Fr100-5: fraction of PEG(10000)IL-6, average 10.0 free amino groups per molecule | 142.8 % of control | 202.4 % of control | 111.3 % of control | 225.9 % of control |  |  |  |  |  |  |  | 
Fr120-1: fraction of PEG(12000)IL-6, average 5.2 free amino groups per molecule |  |  |  |  |  |  | 141.3 % of control | 215.5 % of control | 221.5 % of control | 246.3 % of control | 201.3 % of control | 
Fr120-2: fraction of PEG(12000)IL-6, average 7.6 free amino groups per molecule |  |  |  |  | None of the mice was observed to die | over 10 mg/kg weight | 167.4 % of control | 227.8 % of control | 233.2 % of control | 244.3 % of control | 213.2 % of control | 
Fr120-3: fraction of PEG(12000)IL-6, average 8.7 free amino groups per molecule |  |  |  |  |  |  | 170.1 % of control | 205.9 % of control | 242.7 % of control | 243.1 % of control | 221.4 % of control | 
Fr120-4: fraction of PEG(12000)IL-6, average 9.2 free amino groups per molecule |  |  |  |  |  |  | 161.5 % of control | 203.4 % of control | 221.4 % of control | 229.0 % of control | 200.4 % of control | 
Fr120-5: fraction of PEG(12000)IL-6, average 9.8 free amino groups per molecule |  |  |  |  |  |  | 154.1 % of control | 191.5 % of control | 225.4 % of control | 224.8 % of control | 235.9 % of control | 
IL-6: interleukin-6, multi-functional cytokine |  |  |  |  |  |  |  |  |  |  |  | very short
